The values that follow come from publication PMC8610590 (Journal of Virology, 2021).

pIC50: −log10 of the molar value. Read-outs that look alike come from different tables or passages of the source. Some results are limits rather than exact numbers.

What is called pIC50 is the negative decadic logarithm of the IC50, by convention in mol/L. As a reminder, the CC50 is the concentration that lowers cell viability or growth by half.

The test system of data set [1] is SARS-CoV-2. The data set is classed as cell-based.
Data set [2] relates to SARS-CoV-2 isolate USA-WI1/2020. The data set is described as follows: Antiviral activity against live SARS-CoV-2 in UNCN1T cells. The data set is classed as cell-based. The following applies: for antiviral efficacy against live SARS-CoV-2 (in words): UNCN1T cells, compared to DMSO vehicle control, data not shown.
The test system of data set [3] is pseudotyped lentiviral particles expressing Spike glycoprotein of SARS-CoV-2. The data set is described as follows: microbe, parasite or virus in culture. The data set is classed as cell-based.
Data set [4] has as its target ACE2: SARS-CoV-2 Spike RBD (UniProt P0DTC2+Q9BYF1). Put plainly: ACE2: SARS-CoV-2 Spike RBD inhibitor screening assay. The data set is classed as binding, human ACE2 / SARS-CoV-2.
Data set [5] deals with SARS-CoV-2 isolate USA-WI1/2020. The data set is described as follows: microbe, parasite or virus in culture. The data set is classed as cell-based.
Data set [6] can be described thus: MTT cell viability assay, Vero-STAT1 knockout. Conditions: African green monkey. The data set is classed as cell-based. A general note: Tetrazolium assays rely on reduction of a dye to a coloured formazan, in cell work by metabolically active cells.
The subject of data set [7] is SARS-CoV-2 isolate USA-WI1/2020. The data set is classed as cell-based.
Setting [8] is: Severe acute respiratory syndrome coronavirus 2, read-out: IC50, inhibition of SARS-CoV-2 replication.
Where [9] appears, read: read-out: IC50, inhibition of SARS-CoV-2 replication.

As to `CN1C(=O)c2ccccc2[S+]([O-])c2cc([N+](=O)[O-])ccc2S1(=O)=O` (stereo not drawn) [MU-UNMC-1, 6-methyl-2-nitrodibenzo[d,g][1,6,2]dithiazocin-7(6H)-one 5,5,12-trioxide], the “SARS-CoV-2 infection compared with vehicle controls (in words)” value in data set [1] is “no significant difference”. The pIC50 in data set [2] (setting [8]) was 6.17; in data set [2] (setting [9]), 5.94; in data set [4], over 6.60; in data set [5] (setting [8]) it was 5.27; in data set [5] (setting [9]) it was 5.53. In addition, the “pseudotype viral entry inhibition (in words)” value in data set [3] is “low level of viral entry inhibition with a slight increase at higher concentrations”. In addition, half-maximal cytotoxicity in data set [6] (CC50 at 72 h) was put at 6.21 µM.
Consider `O=C1Nc2cc(C(F)(F)F)ccc2Oc2ccsc21` [MU-UNMC-2, 7-(trifluoromethyl) benzo[b]thieno[2,3-f][1,4]oxazepin-10(9H)-one], for which, in data set [1], the “SARS-CoV-2 infection compared with vehicle controls (in words)” value is listed as “no significant difference”. Also, the “pseudotype viral entry inhibition (in words)” value in data set [3] was “significant and robust viral entry inhibition across a broad concentration range”. Moreover, in data set [3] (Severe acute respiratory syndrome coronavirus 2, 48 h, read-out: IC50, inhibition of entry of pseudotyped lentiviral particles), the negative logarithm of the IC50 (pIC50) is 6.08. Further, in data set [7] (RDV/MU-UNMC-2 combination, human bronchial epithelial cell line), the “reduction in dosages in combination” value was determined as 28.3 fold. This molecule had a CC50 at 72 h in data set [6] of 7.13 µM.
In the case of `CCn1c(SCC(=O)N2CCCc3ccccc32)nnc1-c1cccs1` [MU-UNMC-6, 1-(3,4-dihydroquinolin-1(2H)-yl)-2-((4-ethyl-5-(thiophen-2-yl)-4H-1,2,4-triazol-3-yl)thio) ethanone], in data set [2], the “antiviral efficacy against live SARS-CoV-2 (in words)” value is “did not see any reduction in viral replication kinetics”. Also, the “pseudotype viral entry inhibition (in words)” value in data set [3] was “failed to prevent the pseudovirus entry”. In data set [4], this molecule gave a negative logarithm of the IC50 (pIC50) of 5.72.
The like results for `OC(CNCCNc1ncccc1C(F)(F)F)Cn1ccc2ccccc21` (stereo not drawn) [MU-UNMC-7, 1-(1H-indol-1-yl)-3-((2-((3-(trifluoromethyl)pyridin-2-yl)amino)ethyl)amino)propan-2-ol] were, in that order, “did not see any reduction in viral replication kinetics”, “failed to prevent the pseudovirus entry” and under 5.30.
The like results for `CN(C)/C=C1\N=C(c2cccnc2Oc2ccc(Cl)cc2)OC1=O` [MU-UNMC-8, (Z)-2-(2-(4-chlorophenoxy)pyridin-3-yl)-4-((dimethylamino)methylene)oxazol-5(4H)-one] were, in that order, “did not see any reduction in viral replication kinetics”, “failed to prevent the pseudovirus entry” and under 5.30.
In the case of `CCC(CC)COC(=O)[C@H](C)N[P@](=O)(OC[C@H]1O[C@@](C#N)(c2ccc3c(N)ncnn23)[C@H](O)[C@@H]1O)Oc1ccccc1` [RDV, remdesivir], in data set [7], the “reduction in dosages in combination” value was found to be 2.3 fold. Further, the “dose reduction index (DRI)” value in data set [7] (RDV/MU-UNMC-2 combination, UNCN1T cells, CompuSyn) is listed as 2.33.
